Measured values: patent US20070004660A1, “Synergistic Modulation of Flt3 Kinase Using Alkylquinolines and Alkylquinazolines” (priority 2005, published 2007)

Molecular target: T1, isolated kinase domain of the human FLT3 receptor (a.a. 571-993) (Homo sapiens, UniProt P36888)
T1 construct: human FLT3 receptor (a.a. 571-993)
T1 sequence (P36888 571-993): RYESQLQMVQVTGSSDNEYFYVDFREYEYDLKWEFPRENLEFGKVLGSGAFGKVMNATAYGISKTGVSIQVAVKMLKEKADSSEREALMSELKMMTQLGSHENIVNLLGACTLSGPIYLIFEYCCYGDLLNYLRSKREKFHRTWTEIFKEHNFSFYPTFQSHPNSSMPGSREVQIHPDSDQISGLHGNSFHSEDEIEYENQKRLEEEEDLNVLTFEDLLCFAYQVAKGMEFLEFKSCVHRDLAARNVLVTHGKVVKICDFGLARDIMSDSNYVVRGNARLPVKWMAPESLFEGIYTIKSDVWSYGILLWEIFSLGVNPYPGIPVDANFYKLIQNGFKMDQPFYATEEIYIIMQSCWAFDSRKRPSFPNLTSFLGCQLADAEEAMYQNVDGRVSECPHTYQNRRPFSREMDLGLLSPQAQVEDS
Experiment: FLT3 fluorescence polarization kinase assay
Format: biochemical
Conditions: 150 uM ATP; uncertainty ±10%

| Structure (SMILES) | IC50 |
| --- | --- |
| O=C(Nc1ccc(N2CCOCC2)cc1)N1CCC(c2ncnc3cc(N4CCNC4=O)ccc23)CC1 [Compound 197, 4-[7-(2-Oxo-imidazolidin-1-yl)-quinazolin-4-yl]-piperidine-1-carboxylic acid (4-morpholin-4-yl-phenyl)-amide] | 1040 nM |
| O=C(Nc1ccc(N2CCCC2)cc1)N1CCC(c2ncnc3cc(Oc4cccnc4)ccc23)CC1 [Example 174, 4-[7-(Pyridin-3-yloxy)-quinazolin-4-yl]-piperidine-1-carboxylic acid (4-pyrrolidin-1-yl-phenyl)-amide] | 42 nM |
| O=C(Nc1ccc(N2CCOCC2)cc1)N1CCC(c2ncnc3cc(N4CCC(F)CC4)ccc23)CC1 [Compound 196, 4-[7-(4-Fluoro-piperidin-1-yl)-quinazolin-4-yl]-piperidine-1-carboxylic acid (4-morpholin-4-yl-phenyl)-amide] | 291 nM |
| O=C(Nc1ccc(N2CCOCC2)cc1)N1CCC(c2ncnc3cc(N4CCC[C@H]4CO)ccc23)CC1 [Example 139, (S)-4-[7-(2-Hydroxymethyl-pyrrolidin-1-yl)-quinazolin-4-yl]-piperidine-1-carboxylic acid (4-morpholin-4-yl-phenyl)-amide] | 33 nM |
| CS(=O)(=O)CCNc1ccc2c(C3CCN(C(=O)Nc4ccc(N5CCOCC5)cc4)CC3)ncnc2c1 [Example 146, 4-[7-(2-Methanesulfonyl-ethylamino)-quinazolin-4-yl]-piperidine-1-carboxylic acid (4-morpholin-4-yl-phenyl)-amide] | 274 nM |
| CS(=O)(=O)N1CCN(c2ccc3c(C4CCN(C(=O)Nc5ccc(N6CCCC6)cc5)CC4)ncnc3c2)CC1 [Example 167, 4-[7-(4-Methanesulfonyl-piperazin-1-yl)-quinazolin-4-yl]-piperidine-1-carboxylic acid (4-pyrrolidin-1-yl-phenyl)-amide] | 44 nM |
| COCCN1CCN(c2ccc3c(C4CCN(C(=O)Nc5ccc(N6CCCC6)cc5)CC4)ncnc3c2)CC1 [Compound 186, 4-{7-[4-(2-Methoxy-ethyl)-piperazin-1-yl]-quinazolin-4-yl}-piperidine-1-carboxylic acid (4-pyrrolidin-1-yl-phenyl)-amide] | 93 nM |
| O=C(Nc1ccc(N2CCCC2)cc1)N1CCC(c2ncnc3cc(N4CCOC4=O)ccc23)CC1 [Example 176, 4-[7-(2-Oxo-oxazolidin-3-yl)-quinazolin-4-yl]-piperidine-1-carboxylic acid (4-pyrrolidin-1-yl-phenyl)-amide] | 102 nM |
| CS(=O)(=O)N1CC(Oc2ccc3c(C4CCN(C(=O)Nc5ccc(N6CCCC6)cc5)CC4)ncnc3c2)C1 [Example 171, 4-[7-(1-Methanesulfonyl-azetidin-3-yloxy)-quinazolin-4-yl]-piperidine-1-carboxylic acid (4-pyrrolidin-1-yl-phenyl)-amide] | 130 nM |
| CN(C)[C@@H]1CCN(c2ccc3c(C4CCN(C(=O)Nc5ccc(N6CCCC6)cc5)CC4)ncnc3c2)C1 [Example 149, (R)-4-[7-(3-Dimethylamino-pyrrolidin-1-yl)-quinazolin-4-yl]-piperidine-1-carboxylic acid (4-pyrrolidin-1-yl-phenyl)-amide] | 46 nM |
| O=C(Nc1ccc(N2CCCC2)cc1)N1CCC(c2ncnc3cc(N4CCN(CCO)CC4)ccc23)CC1 [Compound 185, 4-{7-[4-(2-Hydroxy-ethyl)-piperazin-1-yl]-quinazolin-4-yl}-piperidine-1-carboxylic acid (4-pyrrolidin-1-yl-phenyl)-amide] | 55 nM |
| CC(=O)N1CCN(c2ccc3c(C4CCN(C(=O)Nc5ccc(N6CCOCC6)cc5)CC4)ncnc3c2)CC1 [Example 141, 4-[7-(4-Acetyl-piperazin-1-yl)-quinazolin-4-yl]-piperidine-1-carboxylic acid (4-morpholin-4-yl-phenyl)-amide] | 66 nM |
| CN1CCN(c2ccc3c(C4CCN(C(=O)Nc5ccc(N6CCCC6)cc5)CC4)ncnc3c2)CC1=O [Compound 184, 4-[7-(4-Methyl-3-oxo-piperazin-1-yl)-quinazolin-4-yl]-piperidine-1-carboxylic acid (4-pyrrolidin-1-yl-phenyl)-amide] | 244 nM |
| CC(C)c1ccc(NC(=O)CN2CCC(c3ncnc4ccccc34)CC2)cc1 [Example 16, N-(4-Isopropyl-phenyl)-2-(4-quinazolin-4-yl-piperidin-1-yl)-acetamide] | 56 nM |
| O=C(Nc1ccc(N2CCOCC2)cc1)N1CCC(c2ncnc3cc(N4CCC[C@@H]4CO)ccc23)CC1 [Example 132, (R)-4-[7-(2-Hydroxymethyl-pyrrolidin-1-yl)-quinazolin-4-yl]-piperidine-1-carboxylic acid (4-morpholin-4-yl-phenyl)-amide] | 67 nM |

Compounds with a lower IC50, results first:

| IC50 | Structure (SMILES) |
| --- | --- |
| 25 nM | CCN1CCN(c2ccc3c(C4CCN(C(=O)Nc5ccc(N6CCOCC6)cc5)CC4)ncnc3c2)CC1 [Example 136, 4-[7-(4-Ethyl-piperazin-1-yl)-quinazolin-4-yl]-piperidine-1-carboxylic acid (4-morpholin-4-yl-phenyl)-amide] |
| 11 nM | O=C(Nc1ccc(N2CCCC2)cc1)N1CCC(c2ncnc3cc(N4CCSCC4)ccc23)CC1 [Compound 182, 4-(7-Thiomorpholin-4-yl-quinazolin-4-yl)-piperidine-1-carboxylic acid (4-pyrrolidin-1-yl-phenyl)-amide] |
| 6 nM | O=C(Nc1ccc(N2CCCC2)cc1)N1CCC(c2ncnc3cc(-n4ccnc4)ccc23)CC1 [Compound 180, 4-(7-Imidazol-1-yl-quinazolin-4-yl)-piperidine-1-carboxylic acid (4-pyrrolidin-1-yl-phenyl)-amide] |
| 1 nM | O=C(Nc1ccc(N2CCCC2)cc1)N1CCC(c2ncnc3cc(OCCCN4CCC[C@H]4CO)ccc23)CC1 [Example 161, (S)-4-{7-[3-(2-Hydroxymethyl-pyrrolidin-1-yl)-propoxy]-quinazolin-4-yl}-piperidine-1-carboxylic acid (4-pyrrolidin-1-yl-phenyl)-amide] |
| 25 nM | O=C(Nc1ccc(N2CCOCC2)cc1)N1CCC(c2ncnc3cc(N4CC[C@H](O)C4)ccc23)CC1 [Example 128, 4-[7-(3-Hydroxy-pyrrolidin-1-yl)-quinazolin-4-yl]-piperidine-1-carboxylic acid (4-morpholin-4-yl-phenyl)-amide] |
| 30 nM | O=C(Nc1ccc(N2CCOCC2)cc1)N1CCC(c2ncnc3cc(OCCN4CCOC4=O)ccc23)CC1 [Example 148, 4-{7-[2-(2-Oxo-oxazolidin-3-yl)-ethoxy]-quinazolin-4-yl}-piperidine-1-carboxylic acid (4-morpholin-4-yl-phenyl)-amide] |
| 22 nM | O=C(Nc1ccc(N2CCOCC2)cc1)N1CCC(c2ncnc3cc(OCCN4CCC[C@H]4CO)ccc23)CC1 [Example 153, (S)-4-{7-[2-(2-Hydroxymethyl-pyrrolidin-1-yl)-ethoxy]-quinazolin-4-yl}-piperidine-1-carboxylic acid (4-morpholin-4-yl-phenyl)-amide] |
| 15 nM | CC(=O)N1CC[C@@H](Oc2ccc3c(C4CCN(C(=O)Nc5ccc(N6CCCC6)cc5)CC4)ncnc3c2)C1 [Example 154, (R)-4-[7-(1-Acetyl-pyrrolidin-3-yloxy)-quinazolin-4-yl]-piperidine-1-carboxylic acid (4-pyrrolidin-1-yl-phenyl)-amide] |
| 0.5 nM | CN1CCN(CCOc2ccc3c(C4CCN(C(=O)Nc5ccc(N6CCCC6)cc5)CC4)ncnc3c2)CC1 [Example 157, 4-{7-[2-(4-Methyl-piperazin-1-yl)-ethoxy]-quinazolin-4-yl}-piperidine-1-carboxylic acid (4-pyrrolidin-1-yl-phenyl)-amide] |
| 17 nM | O=C(Nc1ccc(N2CCCC2)cc1)N1CCC(c2ncnc3cc(N4CCCC4)ccc23)CC1 [Compound 179, 4-(7-Pyrrolidin-1-yl-quinazolin-4-yl)-piperidine-1-carboxylic acid (4-pyrrolidin-1-yl-phenyl)-amide] |
| 8 nM | CNC(=O)C1CCN(c2ccc3c(C4CCN(C(=O)Nc5ccc(N6CCCC6)cc5)CC4)ncnc3c2)CC1 [Example 155, 4-[7-(4-Carboxylic acid methylamide-piperidin-1-yl)-quinazolin-4-yl]-piperidine-1-carboxylic acid (4-pyrrolidin-1-yl-phenyl)-amide] |
| 20 nM | O=C(Nc1ccc(N2CCCC2)cc1)N1CCC(c2ncnc3cc(N4CCN(c5ccncc5)CC4)ccc23)CC1 [Compound 194, 4-[7-(4-Pyridin-4-yl-piperazin-1-yl)-quinazolin-4-yl]-piperidine-1-carboxylic acid (4-pyrrolidin-1-yl-phenyl)-amide] |
| 14 nM | CN1CCN(c2ccc3c(C4CCN(C(=O)Nc5ccc(N6CCCC6)nc5)CC4)ncnc3c2)CC1 [Example 160, 4-[7-(4-Methyl-piperazin-1-yl)-quinazolin-4-yl]-piperidine-1-carboxylic acid (6-pyrrolidin-1-yl-pyridin-3-yl)-amide] |
| 2 nM | O=C(Nc1ccc(N2CCOCC2)cc1)N1CCC(c2ncnc3cc(OCCCN4CCOCC4)ccc23)CC1 [Example 133, 4-[7-(3-Morpholin-4-yl-propoxy)-quinazolin-4-yl]-piperidine-1-carboxylic acid (4-morpholin-4-yl-phenyl)-amide] |
| 3 nM | O=C1CN(c2ccc3c(C4CCN(C(=O)Nc5ccc(N6CCCC6)cc5)CC4)ncnc3c2)CCN1 [Compound 183, 4-[7-(3-Oxo-piperazin-1-yl)-quinazolin-4-yl]-piperidine-1-carboxylic acid (4-pyrrolidin-1-yl-phenyl)-amide] |
